“Also recorded” adds a separate entry of the source. Like-named read-outs stand apart in the source and are kept apart here.
Legend:
injection sites / skin = test: Necrosis at the injection sites in rats (local skin toxicity)
Text: The symbol "x" represents a conventional score, that is "x" meand slight necrosis, "xx" means severe necrosis, "xxx" means very severe necrosis.

[1] = test system: bone reabsorption and mineralization (tibia, trabecular metaphysis); format: in vivo, Wistar rats; conditions: for effect on mineralization, in words: 10 mg of P/kg / high dosage where stated; for effect on bone reabsorption, in words: rat, in vivo
Experimental: Groups of five Wistar rats of weight 180-200 grams are treated for a period of seven days with 0.1, 1.0 and 10 mg of P/kg of the following biphosphonic acids:
The animals kept as a control were administered the solvent with NaCl. All the treatments were carried out by the subcutaneous route. […] The animals were fed with Altromine 1314 containing 1.1 g/100 g P and 250 IU/100 g of vitamin D3. On the eighth day, the animals were killed and the tibia was removed and fixed in 50% ethanol. The tibiae were then dehydrated in increasing concentration of ethanol and allowed to soak in methylmethacrylate after the addition of Plastoid N. Frontal sections were removed and cut to a thickness of 70-80 μm and then the sections were submitted to microradiography. This procedure permitted to evaluate the density of the mineral in the trabecular metaphysis according to the method of Shenk et al., Calc. Tiss. Res. 11, 196-214, 1973).
One animal per group has been evaluated.

[2] = test system: bone reabsorption (metaphyseal bone density); test: Metaphyseal bone density / inhibition of bone reabsorption in rats treated for 7 days; format: in vivo; conditions: 7 days, rats
in vivo = conditions: mouse, Swiss mice, read-out: DL50 (the source's name)
Experimental: For this study Swiss mice, both male and female, have been utilized: during the experiment, the animals are fed according to the method with Altromin in the form of tablets. For the oral and intraperitoneal administration, there are used 5% gum arabic solutions while saline solutions of pH 4 are used for the intravenous injections.
The preliminary values of DL50 are calculated according to a graphic method.

[3] = test system: skull cells (lactate production); test: cells; format: cell-based, Wistar rats; conditions: for activity at 2.5 µM / activity at 25 µM / activity at 250 µM: Rattus norvegicus, 16 h, read-out: Effect on the production of lactate ± S.E.M.
Experimental: (§1) Cellular culture: the cells are cultured according to the method described by Fast et al, (Biochem. J. 172, 97-107 (1978)). By way of summary, the skulls removed from Wistar rats, one day old, are digested with collagenase. The cells set free are placed on a plate with concentration of 200,000 cells per cc of medium in disks "clusters" suitable for culture, the plates having 24 wells of 1.6 cm in diameter containing 0.5 cc of medium. The cells are cultivated in the essential minimum medium containing 10% of foetal calf serum in an atmosphere of 5% CO2 at 37° up to the eighth day. The bisphosphonates are added on the first day up to the end of the experiment. The medium is changed on the first, fourth and seventh day.
On the seventh day, the medium is changed and the cells are incubated for 16 hours. The lactate produced during this period is measured in an extract in HClO4 of the medium using lactatodehydrogenase.

[4] = for product Ca++ × Pi in solution after incubation: 37° C., two days, control 29, prior to incubation 114.7
Experimental: A model system is used to evaluate the ability of the phosphonates to inhibit the formation of crystals in inorganic solutions. Three solutions are prepared according to Fleisch.
The pH is brought to 7.4 by means of potassium hydroxide. The concentration of Ca^++ was 6.7 mg%, a level similar to the calcium in blood which has been subjected to untrafiltration and the concentration of the inorganic phosphate Pi give a product Ca^++ ×Pi=80. The solution was analyzed for Ca^++ and Pi and was distributed in Erlenmeyer flasks 12 cc each. The flasks were divided in groups as follows:
and then they are incubated under stirring at 37° C. for two days.
At the end of incubation, the solutions are passed through "millipore filters" for the purpose of retaining the ctystals which are formed during the incubation; the filtrate then is analyzed for Ca^++ and Pi. The results are also reported in Table 2 as the product of Ca^++ x Pi in the solution at the end of the experiment.

skull cells = test: cells; format: cell-based, Wistar rats; conditions: for activity at 2.5 µM / activity at 25 µM / activity at 250 µM: Rattus norvegicus, read-out: Effect on the cellular number ± S.E.M.
Experimental: as §1
The cells are counted with a Coulter counter after they have been set free from the disks by digestion with a mixture of collagenase and trypsin.

[5] = 0.01 mg P/kg s.c., s.c. NaCl controls 29.72
[6] = 0.1 mg P/kg s.c., s.c. NaCl controls 29.72
[7] = 1.0 mg P/kg s.c., s.c. NaCl controls 29.72
[8] = 2.0 mg P/kg p.o., p.o. NaCl controls 28.45

NCCCCCC(O)(P(=O)(O)O)P(=O)(O)O [AHEX BP, 6-amino-1-hydroxyhexane-1,1-biphosphonic acid]
necrosis at the injection sites (injection sites / skin; 0.01 mg P/kg, 1 day): .0.
necrosis at the injection sites (injection sites / skin; 0.01 mg P/kg, 2 day): .0.
necrosis at the injection sites (injection sites / skin; 0.01 mg P/kg, 3 day): .0.
necrosis at the injection sites (injection sites / skin; 0.01 mg P/kg, 4 day): .0.
necrosis at the injection sites (injection sites / skin; 0.01 mg P/kg, 5 day): .0.
necrosis at the injection sites (injection sites / skin; 0.01 mg P/kg, 6 day): .0.
necrosis at the injection sites (injection sites / skin; 0.01 mg P/kg, 7 day): .0.
necrosis at the injection sites (injection sites / skin; 0.1 mg P/kg, 1 day): .0.
necrosis at the injection sites (injection sites / skin; 0.1 mg P/kg, 2 day): .0.
necrosis at the injection sites (injection sites / skin; 0.1 mg P/kg, 3 day): .0.
necrosis at the injection sites (injection sites / skin; 0.1 mg P/kg, 4 day): .0.
necrosis at the injection sites (injection sites / skin; 0.1 mg P/kg, 5 day): .0.
necrosis at the injection sites (injection sites / skin; 0.1 mg P/kg, 6 day): .0.
necrosis at the injection sites (injection sites / skin; 0.1 mg P/kg, 7 day): .0.
necrosis at the injection sites (injection sites / skin; 1 mg P/kg, 1 day): .0.
necrosis at the injection sites (injection sites / skin; 1 mg P/kg, 2 day): .0.
necrosis at the injection sites (injection sites / skin; 1 mg P/kg, 3 day): .0.
necrosis at the injection sites (injection sites / skin; 1 mg P/kg, 4 day): .0.
necrosis at the injection sites (injection sites / skin; 1 mg P/kg, 5 day): .0.
necrosis at the injection sites (injection sites / skin; 1 mg P/kg, 6 day): .0.
necrosis at the injection sites (injection sites / skin; 1 mg P/kg, 7 day): .0.
necrosis at the injection sites (injection sites / skin; 10 mg P/kg, 1 day): .0.
necrosis at the injection sites (injection sites / skin; 10 mg P/kg, 2 day): .0.
necrosis at the injection sites (injection sites / skin; 10 mg P/kg, 5 day): xxx
necrosis at the injection sites (injection sites / skin; 10 mg P/kg, 6 day): xxx
necrosis at the injection sites (injection sites / skin; 10 mg P/kg, 7 day): xxx
death of animals (injection sites / skin; 10 mg P/kg, 8 day): animals died spontaneously
effect on mineralization, in words [1]: strong inhibition of mineralization; also recorded: exhibits high inhibition
effect on bone reabsorption, in words [1]: active on the reabsorption with a result slightly superior to Cl2 MBP
metaphysical density [2, 5]: 38.12 % volume of calcified tissue
metaphysical density [2, 6]: 46.96 % volume of calcified tissue
metaphysical density [2, 7]: 54.93 % volume of calcified tissue
metaphysical density [2, 8]: 34.69 % volume of calcified tissue
LD50 (in vivo; ip): 125 mg/kg
LD50 (in vivo; iv): 75 mg/kg
LD50 (in vivo; po, os): > 2000 mg/kg
activity at 2.5 µM ([3]; 2.5 μM): 109 ± 6%
activity at 25 µM ([3]; 25 μM): 108 ± 4.5%
activity at 250 µM ([3]; 250 μM): 165 ± 7.7%
product Ca++ × Pi in solution after incubation ([4]; 0.05 μM): 30.0
product Ca++ × Pi in solution after incubation ([4]; 0.25 μM): 37.5
product Ca++ × Pi in solution after incubation ([4]; 0.5 μM): 59.6
product Ca++ × Pi in solution after incubation ([4]; 2.5 μM): 92.6
product Ca++ × Pi in solution after incubation ([4]; 5.0 μM): 95.3
activity at 2.5 µM (skull cells; 2.5 μM): 93.3 ± 3%
activity at 25 µM (skull cells; 25 μM): 95.2 ± 2.2%
activity at 250 µM (skull cells; 250 μM): 87 ± 3.4%

NCCCCC(O)(P(=O)(O)O)P(=O)(O)O [AHPE BP, 5-amino-1-hydroxypentan-1,1-biphosphonic acid]
necrosis at the injection sites (injection sites / skin; 0.01 mg P/kg, 1 day): .0.
necrosis at the injection sites (injection sites / skin; 0.01 mg P/kg, 2 day): .0.
necrosis at the injection sites (injection sites / skin; 0.01 mg P/kg, 3 day): .0.
necrosis at the injection sites (injection sites / skin; 0.01 mg P/kg, 4 day): .0.
necrosis at the injection sites (injection sites / skin; 0.01 mg P/kg, 5 day): .0.
necrosis at the injection sites (injection sites / skin; 0.01 mg P/kg, 6 day): .0.
necrosis at the injection sites (injection sites / skin; 0.01 mg P/kg, 7 day): .0.
necrosis at the injection sites (injection sites / skin; 0.1 mg P/kg, 1 day): .0.
necrosis at the injection sites (injection sites / skin; 0.1 mg P/kg, 2 day): .0.
necrosis at the injection sites (injection sites / skin; 0.1 mg P/kg, 3 day): .0.
necrosis at the injection sites (injection sites / skin; 0.1 mg P/kg, 4 day): .0.
necrosis at the injection sites (injection sites / skin; 0.1 mg P/kg, 5 day): .0.
necrosis at the injection sites (injection sites / skin; 0.1 mg P/kg, 6 day): .0.
necrosis at the injection sites (injection sites / skin; 0.1 mg P/kg, 7 day): .0.
necrosis at the injection sites (injection sites / skin; 1 mg P/kg, 1 day): .0.
necrosis at the injection sites (injection sites / skin; 1 mg P/kg, 2 day): .0.
necrosis at the injection sites (injection sites / skin; 1 mg P/kg, 3 day): .0.
necrosis at the injection sites (injection sites / skin; 1 mg P/kg, 4 day): .0.
necrosis at the injection sites (injection sites / skin; 1 mg P/kg, 5 day): .0.
necrosis at the injection sites (injection sites / skin; 1 mg P/kg, 6 day): .0.
necrosis at the injection sites (injection sites / skin; 1 mg P/kg, 7 day): .0.
necrosis at the injection sites (injection sites / skin; 10 mg P/kg, 1 day): xxx
necrosis at the injection sites (injection sites / skin; 10 mg P/kg, 2 day): xxx
effect on bone reabsorption, in words [1]: the most active in inhibiting the bone reabsorption
toxicity during the bone reabsorption experiment ([1]; s.c., 10 mg of P/kg / higher dosage): Experiment interrupted due to acute toxicity; also recorded: a toxicity at the higher dosage
metaphysical density [2, 5]: 37.85 % volume of calcified tissue
metaphysical density [2, 6]: 50.44 % volume of calcified tissue
metaphysical density [2, 7]: 56.47 % volume of calcified tissue
metaphysical density [2, 8]: 38.70 % volume of calcified tissue
LD50 (in vivo; ip): 75 mg/kg
LD50 (in vivo; iv): 85 mg/kg
LD50 (in vivo; po, os): 1500 mg/kg
Effect on the production of lactate ± S.E.M. ([3]; 250 μM): dead cells
activity at 2.5 µM ([3]; 2.5 μM): 93.4 ± 3%
activity at 25 µM ([3]; 25 μM): 354 ± 27.7%
product Ca++ × Pi in solution after incubation ([4]; 0.05 μM): 36.7
product Ca++ × Pi in solution after incubation ([4]; 0.25 μM): 37.1
product Ca++ × Pi in solution after incubation ([4]; 0.5 μM): 68.6
product Ca++ × Pi in solution after incubation ([4]; 2.5 μM): 94.0
product Ca++ × Pi in solution after incubation ([4]; 5.0 μM): 97.5
Effect on the cellular number ± S.E.M. (skull cells; 250 μM): dead cells
activity at 2.5 µM (skull cells; 2.5 μM): 103 ± 2.8%
activity at 25 µM (skull cells; 25 μM): 42.6 ± 5.1%

O=P(O)(O)C(Cl)(Cl)P(=O)(O)O [Cl2 MBP, dichloromethanebiphosphonic acid]
metaphysical density [2, 6]: 38.21 % volume of calcified tissue
metaphysical density [2, 7]: 47.00 % volume of calcified tissue
metaphysical density [2, 8]: 31.20 % volume of calcified tissue
metaphysical density ([2]; 10.0 mg P/kg s.c., s.c. NaCl controls 29.72): 52.65 % volume of calcified tissue
LD50 (in vivo; ip): 750 mg/kg
LD50 (in vivo; iv): 130 mg/kg
LD50 (in vivo; po, os): > 2000 mg/kg
effect on the production of lactate, in words [3]: diminishes it
activity at 2.5 µM ([3]; 2.5 μM): 87.5 ± 4%
activity at 25 µM ([3]; 25 μM): 67.1 ± 2.8%
activity at 250 µM ([3]; 250 μM): 16.9 ± 2.2%
product Ca++ × Pi in solution after incubation ([4]; 0.5 μM): 44.0
product Ca++ × Pi in solution after incubation ([4]; 2.5 μM): 60.4
product Ca++ × Pi in solution after incubation ([4]; 5.0 μM): 73.6
effect on the number of cells, in words (skull cells): causes a decrease in the number of cells
activity at 2.5 µM (skull cells; 2.5 μM): 103 ± 0.7%
activity at 25 µM (skull cells; 25 μM): 86.4 ± 2.1%
activity at 250 µM (skull cells; 250 μM): 54.5 ± 1.9%

O=P(O)(O)C(F)(F)P(=O)(O)O [F2 MBP, difluoromethanebiphosphonic acid]
effect on mineralization, in words [1]: no effect on the bone reabsorption or on the bone mineralization
effect on bone reabsorption, in words [1]: no effect on the bone reabsorption
LD50 (in vivo; ip): 450 mg/kg
LD50 (in vivo; iv): 70 mg/kg
LD50 (in vivo; po, os): > 2000 mg/kg
effect on the production of lactate, in words [3]: no effect
activity at 2.5 µM [3]: 112 ± 4.4%
activity at 25 µM [3]: 106 ± 3.9%
activity at 250 µM [3]: 99.7 ± 4.7%
product Ca++ × Pi in solution after incubation ([4]; 0.5 μM): 44.6
product Ca++ × Pi in solution after incubation ([4]; 2.5 μM): 58.5
product Ca++ × Pi in solution after incubation ([4]; 5.0 μM): 72.0
inhibitory activity on the formation and growth of crystals of apatite ([4]; in vitro): inhibits the growth in vitro of the crystals of apatite
effect on the number of cells, in words (skull cells): no effect or a very small effect
activity at 2.5 µM (skull cells): 88.1 ± 1.4%
activity at 25 µM (skull cells): 92.4 ± 1.9%
activity at 250 µM (skull cells): 99.3 ± 2%
